The term TGI denotes the concentration giving total growth inhibition. Read a low TGI as more potent growth arrest.

These results are taken from PubChem BioAssay (NCI).

Assay in all cases: DTP human tumour cell line panel, 48 h
Assay [1] deals with RXF 393 renal.
Assay [2] relates to HCT-15 colon.
For assay [3], the system named is SK-MEL-5 melanoma.
Assay [4] relates to SN12C renal.
Assay [5] concerns UO-31 renal.
The subject of assay [6] is SW-620 colon.
Assay [7] relates to OVCAR-8 ovarian.
Assay [8] deals with MCF7 breast.
Assay [9] concerns HS 578T breast.
Assay [10] has as its system MDA-MB-435.

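Briefly, cells in 96-well plates were exposed to five compound concentrations for 48 h, and endpoints were estimated by linear interpolation. TGI is the concentration that stops growth completely.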 Some results are limits rather than exact numbers.

For the compound `NC1=NS(=O)(=O)N=C(N)C1=Cc1ccc([N+](=O)[O-])o1`, the TGI in [1] was 32.8 µM; in assay [2], 30.7 µM; in assay [3] it was 28.6 µM; in assay [4] it was 30.1 µM; in [5], 31.8 µM; in assay [6] it was 32.7 µM. Also, in [7], the TGI was 33.3 µM.

Regarding `C=CCc1c(O)c2ccccc2[nH]c1=O`, the TGI in [8], in [2], in assay [3], in [9], in [4] and in [5] was over 100 µM throughout. The TGI in assay [6], in assay [7] and in assay [10] was over 100 µM throughout.

For the compound `COc1cc(C2C(Cl)C(=O)N2c2ccc(Br)cc2)cc(I)c1O` (stereo not given), the TGI in [8], in assay [2], in assay [3], in assay [9], in assay [4] and in [5] was over 100 µM in each case. Also, the TGI in assay [6], in assay [7] and in assay [10] was over 100 µM throughout.

For the compound `O=C1CSC2(CC(/C=C/C=C/c3ccccc3)=NN2c2cccc(S(=O)(=O)O)c2)N1c1nc2ccccc2s1` (stereo not given), the TGI in assay [1], in assay [8], in assay [2], in assay [3], in assay [4] and in [5] was over 100 µM each time. Besides, the TGI was over 100 µM in [6], over 100 µM in assay [7] and 55.6 µM in assay [10].

With `O=C1/C(=C/c2ccccc2S)N=C(c2ccccc2)N1c1ccc2c(c1)Sc1cc(N3C(=O)/C(=C/c4ccccc4S)N=C3c3ccccc3)ccc1N2`, the TGI in assay [8] was 39.1 µM; in assay [2] it was over 100 µM; in assay [3], 30.7 µM; in assay [9], 72.4 µM; in assay [4], 34.3 µM; in assay [5], 29.9 µM. Further, the TGI in [6] was found to be 41.6 µM; in [7] it was 43.1 µM; in assay [10], 48.9 µM.

On to `COc1ccccc1C(=O)c1c(N2CCCCC2)c(=O)c1=O`, for which the TGI in assay [1], in assay [8], in assay [2], in assay [3], in assay [4] and in [5] was over 100 µM in each case. The TGI in assay [6], in assay [7] and in assay [10] was over 100 µM throughout.

As to `CCCCCCCCCCCCCCCCOCC(CC(F)(F)P(=O)(O)O)OC(C)=O` (stereo not given), the TGI in assay [8], in assay [2], in assay [3], in assay [4], in [5] and in assay [6] was over 50 µM each time. The compound further had a TGI in assay [10] of over 50 µM.

With `O=C1CCSSCCC(=O)Nc2ccccc2N1`, the TGI in assay [1], in [2], in [3], in assay [9], in [4] and in assay [5] was over 100 µM throughout. The TGI in assay [6], in [7] and in assay [10] was over 100 µM each time.

`c1ccc(C2=NN3CN(N2)c2ccccc2OCCCOc2ccccc23)cc1`: the TGI in assay [1], in [2], in [3], in assay [4], in assay [5] and in assay [6] was over 100 µM throughout. Besides, the TGI in assay [7] is over 100 µM.

For the compound `C=C[C@]1(C)CC[C@]2(C)C(CC[C@@]3(C)C2C[C@H](O)[C@H](O)[C@@]3(C)O)C1` (stereo not given in full), the TGI in [8], in assay [2], in [3], in [9], in [4] and in [5] was over 100 µM each time. For the same compound, the TGI in assay [6], in assay [7] and in assay [10] was over 100 µM throughout.

In the case of `CC(C)=CC(=O)O[C@@H]1CC(C)(C)CC2C3=CCC4[C@]56CC[C@](O)(OC5)C(C)(C)C6CC[C@@]4(C)C3(C)CC[C@]21C(=O)O` (stereo not given in full), the TGI in assay [1], in assay [8], in assay [2], in assay [3], in assay [9] and in assay [4] was over 100 µM throughout. The TGI in assay [6], in [7] and in assay [10] was over 100 µM in each case.

`CC1(C)CC(=O)C(/C=N/c2nc(-c3ccc(Br)cc3)cs2)=C(O)C1`: the TGI is over 100 µM in [8]; 49.7 µM in assay [2]; over 100 µM in assay [3]; over 100 µM in [4]; 73.1 µM in assay [5]; over 100 µM in [6]. Besides, the TGI in assay [7] is over 100 µM; in assay [10], 76.5 µM.

Regarding `Cc1ccc(S(=O)(=O)Nn2c(-c3ccccc3)c(C#N)c(-c3ccc([N+](=O)[O-])cc3)c(C#N)c2=O)cc1`, the TGI in assay [1], in assay [8], in assay [2], in [3], in assay [9] and in assay [4] was over 100 µM throughout. In addition, the TGI in [6], in [7] and in assay [10] was over 100 µM throughout.

For the compound `COc1ccc(CNc2nc(NCc3ccc(OC)cc3)nc(NC3CCCCC3)n2)cc1`, the TGI in [8] was 0.533 µM; in assay [2], 9.52 µM; in [3], over 100 µM; in assay [9], 4.85 µM; in assay [4], over 100 µM; in [5], 96.6 µM. The values for the TGI in [6], in [7] and in [10] were over 100 µM, 7.17 µM and 1.94 µM, respectively.

Consider `CC(C)(CN1CCCCC1)C(=O)CC(SCCS(=O)(=O)O)c1ccc(Br)cc1` (stereo not given), for which the TGI is 2.71 µM in assay [1]; 6.91 µM in assay [2]; 3.32 µM in [3]; 2.97 µM in assay [4]; 2.99 µM in assay [5]; 5.96 µM in assay [7].
